Values joined by “and” are separate entries in the source; they are usually repeats but may differ in a detail not shown here. Equal values may be shown once.
Tests used:
[1] = system: P. fluorescens strain ATCC 13525; experiment: Improved biofilm dispersion screen (already-formed biofilms, crystal violet); format: cell-based; conditions: Pseudomonas fluorescens, ATCC13525, 20 mM NaOH step, positive = dispersion, negative = enhancement of pre-existing biofilm, quadruplicate, read-out: average percentage reduction of biofilm relative to the two control values (dispersion)
Outline: (§1)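 Biofilms pre-grown 24 h without compound, then given fresh medium with compound at 390 μM for another 22–26 h. NaOH wash in PBS (0 mM S. epidermidis, 20 mM P. fluorescens, 30 mM P. aeruginosa; 30 min, room temperature), then crystal violet staining. Percent biofilm reduction calculated against t0 and DMSO t24 controls, quadruplicates; negative values mean enhancement.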

[2] = system: S. epidermidis strain ATCC 35984; experiment: as above; format: cell-based; conditions: Staphylococcus epidermidis, ATCC35984, no NaOH, positive = dispersion, negative = enhancement of pre-existing biofilm, quadruplicate, read-out: average percentage reduction of biofilm relative to the two control values (dispersion)
Outline: as §1

[3] = system: S. epidermidis; experiment: 3-piece growth-chamber array (3P-GCA) biofilm growth test on bathroom tile; format: cell-based, Staphylococcus epidermidis; conditions: 72 hours; for optical density of extracted crystal violet (biofilm growth): S. epidermidis on standard white matte bathroom tile, two medium exchanges, replicate wells A, B, C, smaller = prevention, inoculated control 1.870-2.387; for biofilm prevention activity in 3P-GCA method (in words): S. epidermidis on white matte bathroom tile
Description: Wells in the block bottom are filled with 0.5–1 mL of the media described in Reference Example 1, and inoculated with 5–10 μL of overnight cultures of the bacterial strains described in Reference Example 1. The block bottom and top that contain a standard-size, white bathroom tile are then aligned and clamped together, and the assembly placed on a tissue culture rotator (VWR Scientific) set at a rotation speed of 1–3 rpm, or in a shaking incubator, at the appropriate temperature, for 24 hours. Optionally, the 1 mL liquid medium in each well is then replaced with fresh medium, and incubation continued for an additional 24 hours; this sequence of medium replacement and continued growth is done from 1–3 times, to generate biofilms of the desired thickness. After growth, the block bottom is removed, the liquid is removed and replaced with 200 μL of a 1% CV solution (in ˜10% ethanol). The block is then reassembled, re-positioned on the tissue culture rotator and incubated with the settings described above for 15–75 minutes to stain the biofilms. The block pieces are disassembled, and the top block that contains the tile surface is rinsed under a gentle stream of deionized water until all unbound dye is visibly removed. Optionally, any excessive dye adsorbed to the sides of the wells of the block bottom is removed using a test tube brush and a commonly available detergent formulation; this helps to reduce any background due to non-specific staining that can sometimes occur. As a faster alternative, the stained block bottom is simply interchanged with a new or pre-cleaned block bottom. Bound dye on the tile surface is then extracted by pipetting 0.5–1.0 mL of a solution of 1% sodium deoxycholate in 95% ethanol (and optionally 4–6 glass beads 1–3 mm in diameter to assist dye removal) into each well, reassembling the block top and bottom, and either repositioning on the tissue culture rotator followed by incubation using the settings described above for 0.5–2 hours, or alternatively, vortexing vigorously for 1–5 minutes. Subsequently, either undiluted or diluted (in ethanol) samples of extracted CV pipetted from the disassembled blocks are transferred to flat bottom, polystyrene microtiter plates and absorbances are measured in a microplate reader, and compared to controls, as described in Reference Example 1. […] Use of the 3P-GCA is the same as for the 2P-GCA described in Reference Example 5, except that when liquid growth media are being replaced in the wells of the block bottom, only one of the lid assemblies is removed. This arrangement has the advantage that if sensitive biofilms are being investigated, they are not disturbed at all during the entire method. If the biofilms being investigated are not sensitive to disturbance, then an additional advantage of the 3P-GCA is that it can be used to grow biofilms on both surfaces 30 of each lid assembly 90, especially if the 3P-GCA is mounted on a tissue culture rotator for biofilm growth, such that liquid growth media contacts both surfaces 30. […] Polypropylene block components are used. Data are reported as optical density measurements for 3 replicates of inoculated wells per compound tested, with 3 inoculated and three uninoculated control well replicates, corresponding to columns 1 (compound 32), 2 (compound 168), 3 (compound 226), 4 (inoculated control), and 5 (uninoculated control). Smaller numbers indicate prevention of biofilm growth.

Row | Structure (SMILES) | inhibition at 390 µM [1] | inhibition at 390 µM [2] | optical density of extracted crystal violet (biofilm growth) [3] | biofilm prevention activity in 3P-GCA method (in words) [3]
1 | CCCCCCCCCCNC(=O)[C@@H]1CCCN1 [Compound 32, L-proline n-decyl amide] | 0% | 72% | 0.175 and 0.244 and 0.207 | strong biofilm prevention activity
2 | CCCCCCCCCCCCNC(=O)[C@@H]1CCCN1 [Compound 168] | -3% | 78% | 1.981 and 1.581 and 1.517 | much more modest effect
3 | O=C(NCCCCCCCCCCCCNC(=O)[C@H]1CCCN1)[C@H]1CCCN1 [Compound 226, D-proline 1,12-diaminododecane bisamide] | 32% | 26% | 0.202 and 0.269 and 0.147 | strong biofilm prevention activity

From patent US7018642B2 (The Procter & Gamble Company, priority 2001, dated 2006)
